Test results published in patent publication US12281080B2, “Quinoline-based compounds and methods of inhibiting CDK8/19” (University of South Carolina, priority 2018, dated 2025).
pKd: −log10 of the molar value.

Legend:
VRK2 = VRK2 (Homo sapiens (Human), UniProt Q86Y07); test: KINOMEscan scanMAX; format: binding; settings: 2000 nM; read-out: Percent Control
MERTK = MERTK (Homo sapiens (Human), UniProt Q12866); test: KINOMEscan scanMAX; format: binding; settings: 2000 nM; read-out: Percent Control
PAK4 = PAK4 (Homo sapiens (Human), UniProt O96013); test: KINOMEscan scanMAX; format: binding; settings: 2000 nM; read-out: Percent Control
FLT3(K663Q) = FLT3(K663Q) (Homo sapiens (Human), UniProt P36888, K663Q); test: KINOMEscan scanMAX; format: binding; settings: 2000 nM; read-out: Percent Control
LIMK2 = LIMK2 (Homo sapiens (Human), UniProt P53671); test: KINOMEscan scanMAX; format: binding; settings: 2000 nM; read-out: Percent Control
ERK4 (MAPK4) = ERK4 (MAPK4) (Homo sapiens (Human), UniProt P31152); test: KINOMEscan scanMAX; format: binding; settings: 2000 nM; read-out: Percent Control
MAPKAPK5 = MAPKAPK5 (Homo sapiens (Human), UniProt Q8IW41); test: KINOMEscan scanMAX; format: binding; settings: 2000 nM; read-out: Percent Control
DCAMKL2 (DCLK2) = DCAMKL2 (DCLK2) (Homo sapiens (Human), UniProt Q8N568); test: KINOMEscan scanMAX; format: binding; settings: 2000 nM; read-out: Percent Control
RAF1 = RAF1 (Homo sapiens (Human), UniProt P04049); test: KINOMEscan scanMAX; format: binding; settings: 2000 nM; read-out: Percent Control
PIKFYVE = PIKFYVE (Homo sapiens (Human), UniProt Q9Y2I7); test: KINOMEscan scanMAX; format: binding; settings: 2000 nM; read-out: Percent Control
MAP4K3 = MAP4K3 (Homo sapiens (Human), UniProt Q8IVH8); test: KINOMEscan scanMAX; format: binding; settings: 2000 nM; read-out: Percent Control
S6K1 (RPS6KB1) = S6K1 (RPS6KB1) (Homo sapiens (Human), UniProt P23443); test: KINOMEscan scanMAX; format: binding; settings: 2000 nM; read-out: Percent Control
Sequence of S6K1 (RPS6KB1) (P23443 whole entry): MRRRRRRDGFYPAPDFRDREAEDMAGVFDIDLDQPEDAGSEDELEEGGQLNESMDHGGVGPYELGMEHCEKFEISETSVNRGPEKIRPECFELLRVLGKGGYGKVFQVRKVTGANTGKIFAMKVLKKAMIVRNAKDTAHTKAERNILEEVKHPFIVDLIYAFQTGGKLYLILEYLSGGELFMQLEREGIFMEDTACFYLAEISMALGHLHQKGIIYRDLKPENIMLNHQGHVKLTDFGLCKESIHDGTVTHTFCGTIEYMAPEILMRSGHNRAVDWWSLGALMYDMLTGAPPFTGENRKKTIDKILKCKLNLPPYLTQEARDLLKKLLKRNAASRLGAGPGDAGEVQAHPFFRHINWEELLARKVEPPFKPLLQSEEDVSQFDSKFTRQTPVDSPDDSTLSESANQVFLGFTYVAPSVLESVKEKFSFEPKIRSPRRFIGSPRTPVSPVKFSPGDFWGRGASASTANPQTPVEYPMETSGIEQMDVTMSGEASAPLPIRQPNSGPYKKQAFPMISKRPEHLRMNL

IGF1R = IGF1R (Homo sapiens (Human), UniProt P08069); test: KINOMEscan scanMAX; format: binding; settings: 2000 nM; read-out: Percent Control
Sequence of IGF1R (P08069 31-1367): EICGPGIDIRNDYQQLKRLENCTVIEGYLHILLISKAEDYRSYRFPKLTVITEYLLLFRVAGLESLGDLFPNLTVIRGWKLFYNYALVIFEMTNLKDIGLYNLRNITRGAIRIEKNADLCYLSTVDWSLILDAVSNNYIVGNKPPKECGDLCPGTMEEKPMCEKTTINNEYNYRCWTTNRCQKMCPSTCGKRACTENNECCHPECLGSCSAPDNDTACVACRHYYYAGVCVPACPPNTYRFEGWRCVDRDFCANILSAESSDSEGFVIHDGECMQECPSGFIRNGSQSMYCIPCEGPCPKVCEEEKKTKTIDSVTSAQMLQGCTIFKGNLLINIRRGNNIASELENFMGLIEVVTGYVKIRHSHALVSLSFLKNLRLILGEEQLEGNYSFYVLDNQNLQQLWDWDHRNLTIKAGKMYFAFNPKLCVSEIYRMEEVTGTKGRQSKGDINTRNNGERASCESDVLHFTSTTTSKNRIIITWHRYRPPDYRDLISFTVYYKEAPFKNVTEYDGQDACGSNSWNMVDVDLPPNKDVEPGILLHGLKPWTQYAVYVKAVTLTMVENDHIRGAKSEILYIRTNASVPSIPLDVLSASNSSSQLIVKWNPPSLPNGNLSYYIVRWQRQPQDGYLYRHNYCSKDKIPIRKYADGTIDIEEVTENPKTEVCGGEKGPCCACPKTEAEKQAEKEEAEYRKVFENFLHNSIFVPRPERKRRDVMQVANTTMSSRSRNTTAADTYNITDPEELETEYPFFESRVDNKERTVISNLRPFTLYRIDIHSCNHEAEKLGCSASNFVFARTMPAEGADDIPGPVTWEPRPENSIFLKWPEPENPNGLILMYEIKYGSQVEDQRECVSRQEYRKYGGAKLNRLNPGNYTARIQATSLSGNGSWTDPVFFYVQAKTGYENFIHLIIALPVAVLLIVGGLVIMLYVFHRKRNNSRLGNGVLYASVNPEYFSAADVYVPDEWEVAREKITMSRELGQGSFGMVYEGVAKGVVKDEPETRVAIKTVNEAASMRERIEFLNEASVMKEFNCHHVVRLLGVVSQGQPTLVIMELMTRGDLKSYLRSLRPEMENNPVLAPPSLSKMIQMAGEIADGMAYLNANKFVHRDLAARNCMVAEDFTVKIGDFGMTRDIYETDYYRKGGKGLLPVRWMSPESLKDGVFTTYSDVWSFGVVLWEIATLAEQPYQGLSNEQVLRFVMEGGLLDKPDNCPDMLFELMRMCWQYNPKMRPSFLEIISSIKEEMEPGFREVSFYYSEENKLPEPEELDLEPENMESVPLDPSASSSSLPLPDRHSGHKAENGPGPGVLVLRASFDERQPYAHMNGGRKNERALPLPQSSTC

[1] = target: ABL1(Y253F)-phosphorylated (Homo sapiens (Human), UniProt P00519, Y253F); test: KINOMEscan scanMAX; format: binding; settings: 2000 nM; read-out: Percent Control
FGFR4 = FGFR4 (Homo sapiens (Human), UniProt P22455); test: KINOMEscan scanMAX; format: binding; settings: 2000 nM; read-out: Percent Control
EPHB1 = EPHB1 (Homo sapiens (Human), UniProt P54762); test: KINOMEscan scanMAX; format: binding; settings: 2000 nM; read-out: Percent Control
AAK1 = AAK1 (Homo sapiens (Human), UniProt Q2M2I8); test: KINOMEscan scanMAX; format: binding; settings: 2000 nM; read-out: Percent Control
SNARK (NUAK2) = SNARK (NUAK2) (Homo sapiens (Human), UniProt Q9H093); test: KINOMEscan scanMAX; format: binding; settings: 2000 nM; read-out: Percent Control
Sequence of SNARK (NUAK2) (Q9H093 whole entry): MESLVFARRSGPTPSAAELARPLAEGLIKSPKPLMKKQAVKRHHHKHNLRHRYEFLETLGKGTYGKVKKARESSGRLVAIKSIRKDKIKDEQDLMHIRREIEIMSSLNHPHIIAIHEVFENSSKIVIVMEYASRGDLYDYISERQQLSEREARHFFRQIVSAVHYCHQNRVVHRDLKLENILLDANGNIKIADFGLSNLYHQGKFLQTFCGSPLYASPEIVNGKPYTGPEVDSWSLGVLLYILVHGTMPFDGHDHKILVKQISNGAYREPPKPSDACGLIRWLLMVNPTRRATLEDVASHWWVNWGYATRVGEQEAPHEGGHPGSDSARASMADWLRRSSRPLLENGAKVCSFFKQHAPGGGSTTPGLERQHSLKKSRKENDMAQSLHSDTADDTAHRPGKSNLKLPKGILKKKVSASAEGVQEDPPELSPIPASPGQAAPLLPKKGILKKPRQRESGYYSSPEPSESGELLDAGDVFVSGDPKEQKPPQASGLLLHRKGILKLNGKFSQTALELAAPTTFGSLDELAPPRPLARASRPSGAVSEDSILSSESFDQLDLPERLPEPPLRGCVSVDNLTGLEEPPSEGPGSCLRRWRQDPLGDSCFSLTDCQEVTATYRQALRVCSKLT

[2] = Serum and tumor PK in mice bearing 22rv1 xenograft tumors; format: in vivo; settings: i.p. 20 mg/kg, male NcrNU mice
Method: To evaluate the PK of Senexin C in tumor tissues, Senexin C dissolved in 5% Dextrose was administered i.p. to male NcrNU mice bearing 22rv1 xenograft tumors (300˜500 mm^3) at 20 mg/kg. Both blood and tumor samples were collected at three different time points (3 mice per time point) after administration and Senexin C concentration in the serum and tumor tissue was measured by LC/MS/MS.

ROCK1 = ROCK1 (Homo sapiens (Human), UniProt Q13464); test: KINOMEscan scanMAX; format: binding; settings: 2000 nM; read-out: Percent Control
ASK2 (MAP3K6) = ASK2 (MAP3K6) (Homo sapiens (Human), UniProt O95382); test: KINOMEscan scanMAX; format: binding; settings: 2000 nM; read-out: Percent Control
PIK3CA(M1043I) = PIK3CA(M1043I) (Homo sapiens (Human), UniProt P42336, M1043I); test: KINOMEscan scanMAX; format: binding; settings: 2000 nM; read-out: Percent Control
Sequence of PIK3CA(M1043I) (P42336 whole entry M1043I): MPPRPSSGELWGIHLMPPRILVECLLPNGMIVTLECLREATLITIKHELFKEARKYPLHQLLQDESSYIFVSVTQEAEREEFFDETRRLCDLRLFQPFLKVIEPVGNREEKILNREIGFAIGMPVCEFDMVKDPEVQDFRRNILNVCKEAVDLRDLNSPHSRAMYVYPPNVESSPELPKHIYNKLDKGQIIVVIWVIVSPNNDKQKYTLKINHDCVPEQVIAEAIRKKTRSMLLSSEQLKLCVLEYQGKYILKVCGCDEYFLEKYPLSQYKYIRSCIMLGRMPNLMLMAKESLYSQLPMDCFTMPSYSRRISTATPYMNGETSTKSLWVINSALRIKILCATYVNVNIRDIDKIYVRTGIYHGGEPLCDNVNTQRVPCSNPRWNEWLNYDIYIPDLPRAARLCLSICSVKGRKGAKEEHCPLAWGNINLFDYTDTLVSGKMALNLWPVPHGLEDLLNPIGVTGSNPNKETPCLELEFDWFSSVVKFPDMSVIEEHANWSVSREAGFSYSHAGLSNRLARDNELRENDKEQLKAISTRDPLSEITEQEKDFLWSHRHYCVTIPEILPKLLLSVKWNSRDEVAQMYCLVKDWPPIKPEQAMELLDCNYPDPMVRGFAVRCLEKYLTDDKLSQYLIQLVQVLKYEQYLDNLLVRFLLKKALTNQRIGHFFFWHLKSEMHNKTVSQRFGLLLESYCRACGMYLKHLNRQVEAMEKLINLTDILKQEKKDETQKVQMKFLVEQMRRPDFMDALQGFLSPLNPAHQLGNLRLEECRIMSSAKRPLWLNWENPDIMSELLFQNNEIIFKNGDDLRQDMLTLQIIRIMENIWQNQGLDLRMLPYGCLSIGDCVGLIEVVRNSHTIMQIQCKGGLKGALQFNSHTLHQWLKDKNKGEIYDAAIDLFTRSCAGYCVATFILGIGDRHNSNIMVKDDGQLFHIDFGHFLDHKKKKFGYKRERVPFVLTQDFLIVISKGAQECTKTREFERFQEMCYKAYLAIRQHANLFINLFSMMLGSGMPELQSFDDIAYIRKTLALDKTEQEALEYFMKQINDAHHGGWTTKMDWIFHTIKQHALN

PAK7 = PAK7 (Homo sapiens (Human), UniProt Q9P286); test: KINOMEscan scanMAX; format: binding; settings: 2000 nM; read-out: Percent Control
EPHA1 = EPHA1 (Homo sapiens (Human), UniProt P21709); test: KINOMEscan scanMAX; format: binding; settings: 2000 nM; read-out: Percent Control
C4-2 xenografts = test: PSA mRNA in C4-2 xenografts in mice; format: in vivo; settings: 40 mg/kg orally daily for 4 days, male NcrNU mice
Method: CDK8/19 inhibition decreases the expression of certain androgen-receptor (AR) inducible genes including PSA, the most common marker of prostate cancer, and the growth of castration-refractory prostate cancers (CRPC). The in vivo effects of Senexin C on PSA expression by C4-2 cells were analyzed after treatment of male NcrNU mice bearing C4-2 xenografts (grouped based on tumor sizes) for 4 days at 40 mg/kg administered orally daily.

NLK = NLK (Homo sapiens (Human), UniProt Q9UBE8); test: KINOMEscan scanMAX; format: binding; settings: 2000 nM; read-out: Percent Control
CSNK2A1 = CSNK2A1 (Homo sapiens (Human), UniProt P68400); test: KINOMEscan scanMAX; format: binding; settings: 2000 nM; read-out: Percent Control
CSF1R = CSF1R (Homo sapiens (Human), UniProt P07333); test: KINOMEscan scanMAX; format: binding; settings: 2000 nM; read-out: Percent Control
EPHB2 = EPHB2 (Homo sapiens (Human), UniProt P29323); test: KINOMEscan scanMAX; format: binding; settings: 2000 nM; read-out: Percent Control
CDK19 = CDK19 (Homo sapiens (Human), UniProt Q9BWU1); test: DiscoverX Kd assay
SRPK1 = SRPK1 (Homo sapiens (Human), UniProt Q96SB4); test: KINOMEscan scanMAX; format: binding; settings: 2000 nM; read-out: Percent Control
Sequence of SRPK1 (Q96SB4 whole entry): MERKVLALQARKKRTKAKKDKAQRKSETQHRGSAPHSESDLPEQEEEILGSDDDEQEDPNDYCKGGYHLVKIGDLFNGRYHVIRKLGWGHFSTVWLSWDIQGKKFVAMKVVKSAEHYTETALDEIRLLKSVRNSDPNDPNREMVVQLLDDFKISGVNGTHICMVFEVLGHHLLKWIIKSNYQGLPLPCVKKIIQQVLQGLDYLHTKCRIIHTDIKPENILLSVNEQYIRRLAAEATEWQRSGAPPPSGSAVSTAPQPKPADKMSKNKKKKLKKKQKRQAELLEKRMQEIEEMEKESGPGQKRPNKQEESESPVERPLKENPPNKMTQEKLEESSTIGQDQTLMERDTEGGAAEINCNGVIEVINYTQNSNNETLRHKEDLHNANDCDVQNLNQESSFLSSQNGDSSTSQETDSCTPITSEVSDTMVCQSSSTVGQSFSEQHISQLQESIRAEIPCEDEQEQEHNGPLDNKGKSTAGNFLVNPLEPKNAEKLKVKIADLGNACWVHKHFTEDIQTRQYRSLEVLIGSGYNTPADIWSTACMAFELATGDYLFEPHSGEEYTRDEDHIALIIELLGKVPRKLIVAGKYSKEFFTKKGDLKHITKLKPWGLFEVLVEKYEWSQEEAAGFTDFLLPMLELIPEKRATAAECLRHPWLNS

HPK1 (MAP4K1) = HPK1 (MAP4K1) (Homo sapiens (Human), UniProt Q92918); test: KINOMEscan scanMAX; format: binding; settings: 2000 nM; read-out: Percent Control
[3] = target: ABL1(F317L)-phosphorylated (Homo sapiens (Human), UniProt P00519, F317L); test: KINOMEscan scanMAX; format: binding; settings: 2000 nM; read-out: Percent Control
YANK3 (STK32C) = YANK3 (STK32C) (Homo sapiens (Human), UniProt Q86UX6); test: KINOMEscan scanMAX; format: binding; settings: 2000 nM; read-out: Percent Control
Sequence of YANK3 (STK32C) (Q86UX6 whole entry): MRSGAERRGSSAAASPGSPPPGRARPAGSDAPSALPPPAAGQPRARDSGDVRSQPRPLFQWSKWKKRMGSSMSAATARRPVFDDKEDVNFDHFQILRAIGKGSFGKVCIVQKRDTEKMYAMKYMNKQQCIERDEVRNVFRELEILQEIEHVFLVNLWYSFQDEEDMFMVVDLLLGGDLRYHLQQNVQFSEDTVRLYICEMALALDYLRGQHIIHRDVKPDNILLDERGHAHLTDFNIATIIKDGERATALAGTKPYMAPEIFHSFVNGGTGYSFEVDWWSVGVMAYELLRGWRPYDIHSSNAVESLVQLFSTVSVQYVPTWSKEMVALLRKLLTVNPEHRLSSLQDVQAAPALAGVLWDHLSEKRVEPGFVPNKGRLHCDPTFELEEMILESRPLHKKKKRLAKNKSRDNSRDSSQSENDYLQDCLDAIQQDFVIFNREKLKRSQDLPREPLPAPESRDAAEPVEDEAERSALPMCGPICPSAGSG

TNIK = TNIK (Homo sapiens (Human), UniProt Q9UKE5); test: KINOMEscan scanMAX; format: binding; settings: 2000 nM; read-out: Percent Control

CN1CCN(C(=O)c2ccc3cc(CCNc4ccnc5ccc(C#N)cc45)ccc3c2)CC1 [compound 6148, 4-((2-(6-(4-methylpiperazine-1-carbonyl)naphthalen-2-yl)ethyl)amino)quinoline-6-carbonitrile]
remaining binding at 2 µM (VRK2): 58%
remaining binding at 2 µM (MERTK): 89%
remaining binding at 2 µM (PAK4): 97%
remaining binding at 2 µM (FLT3(K663Q)): 87%
remaining binding at 2 µM (LIMK2): 93%
remaining binding at 2 µM (ERK4 (MAPK4)): 87%
remaining binding at 2 µM (MAPKAPK5): 62%
remaining binding at 2 µM (DCAMKL2 (DCLK2)): 94%
remaining binding at 2 µM (RAF1): 98%
remaining binding at 2 µM (PIKFYVE): 86%
remaining binding at 2 µM (MAP4K3): 100%
remaining binding at 2 µM (S6K1 (RPS6KB1)): 78%
remaining binding at 2 µM (IGF1R): 94%
remaining binding at 2 µM [1]: 74%
remaining binding at 2 µM (FGFR4): 96%
remaining binding at 2 µM (EPHB1): 92%
remaining binding at 2 µM (AAK1): 84%
remaining binding at 2 µM (SNARK (NUAK2)): 75%
Clearance from tumor tissue compared with blood [2]: much slower clearance rate
Kp ([2]; mouse, tumor tissue (relative to serum), ip, read-out: Amount in tumor tissue relative to blood): 5 to 10
remaining binding at 2 µM (ROCK1): 52%
remaining binding at 2 µM (ASK2 (MAP3K6)): 79%
remaining binding at 2 µM (PIK3CA(M1043I)): 80%
remaining binding at 2 µM (PAK7): 100%
remaining binding at 2 µM (EPHA1): 93%
PSA mRNA levels in the tumor (C4-2 xenografts): strongly decreased
remaining binding at 2 µM (NLK): 90%
remaining binding at 2 µM (CSNK2A1): 56%
remaining binding at 2 µM (CSF1R): 85%
remaining binding at 2 µM (EPHB2): 86%
pKd (CDK19): 7.36
remaining binding at 2 µM (SRPK1): 91%
remaining binding at 2 µM (HPK1 (MAP4K1)): 94%
remaining binding at 2 µM [3]: 74%
remaining binding at 2 µM (YANK3 (STK32C)): 100%
remaining binding at 2 µM (TNIK): 89%
